# Laboratory results: patent US20160300038A1, “METHODS OF N[…] DRUG CONCENTRATIONS IN URINE USING PATIENT […] DATA AND TESTING FOR POTENTIAL NON-[…] A CHRONIC DRUG TREATMENT REGIMEN” (Ameritox, Ltd., priority 2015, published 2016)
# Assay: Urine drug testing (UDT): drug concentration of the primary metabolite (parent drug) in patient urine, e.g. LC/MSMS
# Description: Non-limiting examples for determining the amount of a drug in fluid of a subject include fluorescence polarization immunoassay (“FPIA,” Abbott Diagnostics), mass spectrometry (MS), gas chromatography-mass spectrometry (GC-MS-MS), liquid chromatography-mass spectrometry (LC-MS-MS), liquid chromatography—exact mass mass spectrometry (LC/QTOF) and the like. […] In one embodiment, a raw level, amount, or concentration of a drug in urine of a subject is measured and reported as a ratio, percent, or in relationship to the amount of fluid. The amount of fluid may be expressed as a unit volume, for example, in L, mL, μL, pL, ounce, etc. In one embodiment, the raw amount of a drug in Urine of a subject may be expressed as an absolute level or value, for example, in g, mg, μg, ng, pg, etc.
# Then urine from the subject is tested. […] These values are within normal ranges so the data were processed.
# Of the patients considered in this sample 70% were females and 30% were males.
smiles,measurement,setting,value
COc1ccc2c3c1O[C@H]1C(=O)CC[C@H]4[C@@H](C2)N(C)CC[C@]314 [hydrocodone],average urine drug concentration,"hydrocodone model population, approximately 100,000 patient results, average daily dosage 30 mg",1784 ng/m L
COc1ccc2c3c1O[C@H]1C(=O)CC[C@@]4(O)[C@@H](C2)N(C)CC[C@]314 [oxycodone],average urine drug concentration,"oxycodone model population, approximately 47,000 patient results, average daily dosage 36 mg",2120 ng/m L
O=C1Nc2ccc(Cl)cc2C(c2ccccc2)=NC1O (stereo not drawn) [oxazepam],average urine drug concentration,"Example 8, fifty patients prescribed diazepam or temazepam (oxazepam as metabolite), average daily dosage 17 mg",1096 ng/m L
same,average oxazepam urine drug concentration,"oxazepam model population, approximately 207,000 patient results, prescribed diazepam and temazepam, average daily dosage 23 mg",1819 ng/m L
Cc1nnc2n1-c1ccc(Cl)cc1C(c1ccccc1)=NC2 [alprazolam],average urine drug concentration,"Example 7, fifty randomly selected alprazolam patients, average daily dosage 2 mg",155 ng/m L
same,average urine drug concentration,"alprazolam model population, approximately 280,000 patient results, average daily dosage 3 mg",375 ng/mL
